# Laboratory results as given in patent US8846698B2, “Pyrrolo[2,3-d]pyrimidine tropomysin-related kinase inhibitors” (Pfizer Limited, priority 2011, dated 2014).
# Biological target: TRKA (Homo sapiens (Human), UniProt P04629)
# Test: Isolated TRK enzyme assay (HTRF KinEASE-TK), TRKA
# Assay type: biochemical
# Conditions: read-out: Trka enzyme (IC50)
# Chain of TRKA (P04629 441-796): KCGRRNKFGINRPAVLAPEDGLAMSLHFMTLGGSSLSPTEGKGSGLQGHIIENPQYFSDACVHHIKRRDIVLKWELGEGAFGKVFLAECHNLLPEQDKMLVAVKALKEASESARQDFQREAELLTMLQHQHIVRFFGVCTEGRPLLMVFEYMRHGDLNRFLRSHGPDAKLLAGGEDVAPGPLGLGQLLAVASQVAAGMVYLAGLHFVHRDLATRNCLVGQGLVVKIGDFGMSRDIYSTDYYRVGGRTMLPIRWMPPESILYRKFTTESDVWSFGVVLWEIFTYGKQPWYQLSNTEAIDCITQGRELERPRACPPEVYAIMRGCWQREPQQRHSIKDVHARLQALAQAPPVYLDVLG
row,SMILES,IC50 [µM]
1,"Cc1cccc(-c2nnnn2CC(=O)Nc2cncc(C(=O)c3cn(C(C)C)c4ncncc34)c2)c1 [Example 364, N-[5-(7-Isopropyl-7H-pyrrolo[2,3-d]pyrimidine-5-carbonyl)-pyridin-3-yl]-2-(5-m-tolyl-tetrazol-1-yl)-acetamide]",5.04
2,"CC(C)n1cc(C(=O)c2cncc(NC(=O)Cn3cnc(-c4ccc(F)cc4)c3)c2)c2cncnc21 [Example 365, 2-[4-(4-Fluoro-phenyl)-imidazol-1-yl]-N-[5-(7-isopropyl-7H-pyrrolo[2,3-d]pyrimidine-5-carbonyl)-pyridin-3-yl]-acetamide]",2.04
3,"CC(C)c1ccnn1CC(=O)Nc1cncc(C(=O)c2cn(C(C)C)c3ncncc23)c1 [Example 366, 2-(5-Isopropyl-pyrazol-1-yl)-N-[5-(7-isopropyl-7H-pyrrolo[2,3-d]pyrimidine-5-carbonyl)-pyridin-3-yl]-acetamide]",0.354
4,"CCc1nn2cc(CC(=O)Nc3cncc(C(=O)c4cn(C(C)C)c5ncncc45)c3)nc2s1 [Example 367, 2-(2-Ethyl-imidazo[2,1-b]-1,3,4-thiadiazol-6-yl)-N-[5-(7-isopropyl-7H-pyrrolo[2,3-d]pyrimidine-5-carbonyl)-pyridin-3-yl]-acetamide]",5.64
5,"Cc1cn2cc(CC(=O)Nc3cncc(C(=O)c4cn(C(C)C)c5ncncc45)c3)nc2s1 [Example 368, N-[5-(7-Isopropyl-7H-pyrrolo[2,3-d]pyrimidine-5-carbonyl)-pyridin-3-yl]-2-(2-methyl-imidazo[2,1-b]thiazol-6-yl)-acetamide]",0.753
6,"Cc1nc(Cl)nn1CC(=O)Nc1cncc(C(=O)c2cn(C(C)C)c3ncncc23)c1 [Example 369, 2-(3-Chloro-5-methyl-1,2,4-triazol-1-yl)-N-[5-(7-isopropyl-7H-pyrrolo[2,3-d]pyrimidine-5-carbonyl)-pyridin-3-yl]-acetamide]",3
7,"CC(C)n1cc(C(=O)c2cncc(NC(=O)Cn3ccnc3-c3ccccc3)c2)c2cncnc21 [Example 370, N-[5-(7-Isopropyl-7H-pyrrolo[2,3-d]pyrimidine-5-carbonyl)-pyridin-3-yl]-2-(2-phenyl-imidazol-1-yl)-acetamide]",3.54
8,"CC(C)n1cc(C(=O)c2cncc(NC(=O)Cc3cn4cc(Cl)sc4n3)c2)c2cncnc21 [Example 371, 2-(2-Chloro-imidazo[2,1-b]thiazol-6-yl)-N-[5-(7-isopropyl-7H-pyrrolo[2,3-d]pyrimidine-5-carbonyl)-pyridin-3-yl]-acetamide]",0.097
9,"CC(C)n1cc(C(=O)c2cncc(NC(=O)Cn3ccnc3)c2)c2cncnc21 [Example 372, 2-Imidazol-1-yl-N-[5-(7-isopropyl-7H-pyrrolo[2,3-d]pyrimidine-5-carbonyl)-pyridin-3-yl]-acetamide]",9.8
10,"Cc1csc2nc(CC(=O)Nc3cncc(C(=O)c4cn(C(C)C)c5ncncc45)c3)cn12 [Example 373, N-[5-(7-Isopropyl-7H-pyrrolo[2,3-d]pyrimidine-5-carbonyl)-pyridin-3-yl]-2-(3-methyl-imidazo[2,1-b]thiazol-6-yl)-acetamide]",0.813
11,"CC(C)n1cc(C(=O)c2cncc(NC(=O)Cc3ccn(-c4ccc(O)cc4)c3)c2)c2cncnc21 [Example 374, 2-[1-(4-Hydroxy-phenyl)-1H-pyrrol-3-yl]-N-[5-(7-isopropyl-7H-pyrrolo[2,3-d]pyrimidine-5-carbonyl)-pyridin-3-yl]-acetamide]",0.224
12,"CC(C)n1cc(C(=O)c2cncc(NC(=O)Cc3cnc4ncnn4c3)c2)c2cncnc21 [Example 375, N-[5-(7-Isopropyl-7H-pyrrolo[2,3-d]pyrimidine-5-carbonyl)-pyridin-3-yl]-2-[1,2,4]triazolo[1,5-a]pyrimidin-6-yl-acetamide]",9.8
13,"CC(C)n1cc(C(=O)c2cncc(NC(=O)Cc3cnccn3)c2)c2cncnc21 [Example 376, N-[5-(7-Isopropyl-7H-pyrrolo[2,3-d]pyrimidine-5-carbonyl)-pyridin-3-yl]-2-pyrazin-2-yl-acetamide]",5.1
14,"CC(C)n1cc(C(=O)c2cncc(NC(=O)Cn3cc(-c4cccc(O)c4)nn3)c2)c2cncnc21 [Example 377, 2-[4-(3-Hydroxy-phenyl)-1,2,3-triazol-1-yl]-N-[5-(7-isopropyl-7H-pyrrolo[2,3-d]pyrimidine-5-carbonyl)-pyridin-3-yl]-acetamide]",2.63
15,"CC(C)n1cc(C(=O)c2cncc(NC(=O)Cn3nnnc3-c3ccccc3)c2)c2cncnc21 [Example 378, N-[5-(7-Isopropyl-7H-pyrrolo[2,3-d]pyrimidine-5-carbonyl)-pyridin-3-yl]-2-(5-phenyl-tetrazol-1-yl)-acetamide]",0.716
16,"CC(C)n1cc(C(=O)c2cncc(NC(=O)c3nccc4occc34)c2)c2cncnc21 [Example 380, Furo[3,2-c]pyridine-4-carboxylic acid [5-(7-isopropyl-7H-pyrrolo[2,3-d]pyrimidine-5-carbonyl)-pyridin-3-yl]-amide]",0.422
17,"Cc1nonc1C(=O)Nc1cncc(C(=O)c2cn(C(C)C)c3ncncc23)c1 [Example 381, 4-Methyl-furazan-3-carboxylic acid [5-(7-isopropyl-7H-pyrrolo[2,3-d]pyrimidine-5-carbonyl)-pyridin-3-yl]-amide]",2.78
18,"CC(C)n1cc(C(=O)c2cncc(NC(=O)c3nn(C)c4ccccc34)c2)c2cncnc21 [Example 382, 1-Methyl-1H-indazole-3-carboxylic acid [5-(7-isopropyl-7H-pyrrolo[2,3-d]pyrimidine-5-carbonyl)-pyridin-3-yl]-amide]",0.0457
19,"CC(C)n1cc(C(=O)c2cncc(NC(=O)c3cc4ccccc4[nH]3)c2)c2cncnc21 [Example 383, 1H-Indole-2-carboxylic acid [5-(7-isopropyl-7H-pyrrolo[2,3-d]pyrimidine-5-carbonyl)-pyridin-3-yl]-amide]",0.13
20,"Cc1nc(C(F)(F)F)c(C(=O)Nc2cncc(C(=O)c3cn(C(C)C)c4ncncc34)c2)s1 [Example 384, 2-Methyl-4-trifluoromethyl-thiazole-5-carboxylic acid [5-(7-isopropyl-7H-pyrrolo[2,3-d]pyrimidine-5-carbonyl)-pyridin-3-yl]-amide]",4.77
21,"CC(C)n1cc(C(=O)c2cncc(NC(=O)c3ncoc3C3CC3)c2)c2cncnc21 [Example 385, 5-Cyclopropyl-oxazole-4-carboxylic acid [5-(7-isopropyl-7H-pyrrolo[2,3-d]pyrimidine-5-carbonyl)-pyridin-3-yl]-amide]",0.0816
22,"CC(C)n1cc(C(=O)c2cncc(NC(=O)c3cccnn3)c2)c2cncnc21 [Example 386, Pyridazine-3-carboxylic acid [5-(7-isopropyl-7H-pyrrolo[2,3-d]pyrimidine-5-carbonyl)-pyridin-3-yl]-amide]",9.8
23,"Cc1n[nH]c(C(F)(F)F)c1C(=O)Nc1cncc(C(=O)c2cn(C(C)C)c3ncncc23)c1 [Example 387, 3-Methyl-5-trifluoromethyl-1H-pyrazole-4-carboxylic acid [5-(7-isopropyl-7H-pyrrolo[2,3-d]pyrimidine-5-carbonyl)-pyridin-3-yl]-amide]",6.88
24,"Cc1ccnc(C(=O)Nc2cncc(C(=O)c3cn(C(C)C)c4ncncc34)c2)c1 [Example 388, 4-Methyl-pyridine-2-carboxylic acid[5-(7-isopropyl-7H-pyrrolo[2,3-d]pyrimidine-5-carbonyl)-pyridin-3-yl]-amide]",0.165
